For two compounds, IC50 results are on record in ChEMBL document CHEMBL1155648, “Three new arylobenzofurans from Onobrychis ebenoides and evaluation of their binding affinity for the estrogen receptor” (J Nat Prod, 2000).

The assay deals with T1, Estrogen receptor (Homo sapiens, UniProt P03372).
T1 sequence (P03372 whole entry): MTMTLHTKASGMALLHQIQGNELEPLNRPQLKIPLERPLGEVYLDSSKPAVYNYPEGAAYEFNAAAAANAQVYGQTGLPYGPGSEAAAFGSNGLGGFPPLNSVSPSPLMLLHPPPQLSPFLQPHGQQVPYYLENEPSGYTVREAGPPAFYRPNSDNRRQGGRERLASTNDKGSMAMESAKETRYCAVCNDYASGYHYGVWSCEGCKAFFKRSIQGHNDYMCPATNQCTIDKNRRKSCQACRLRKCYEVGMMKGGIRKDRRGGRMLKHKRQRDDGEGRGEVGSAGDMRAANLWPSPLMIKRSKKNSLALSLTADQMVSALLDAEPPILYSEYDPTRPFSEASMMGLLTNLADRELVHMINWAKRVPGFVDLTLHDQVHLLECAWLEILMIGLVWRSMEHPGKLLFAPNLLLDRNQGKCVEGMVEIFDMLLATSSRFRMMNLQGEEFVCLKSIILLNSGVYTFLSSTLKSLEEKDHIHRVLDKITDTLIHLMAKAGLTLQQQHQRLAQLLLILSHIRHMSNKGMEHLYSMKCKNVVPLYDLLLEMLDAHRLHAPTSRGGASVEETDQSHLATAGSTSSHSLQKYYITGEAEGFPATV
Description: Displacement of [3H]estradiol from estrogen receptor.

Broadly, the IC50 is the concentration needed to halve the response being measured. The low end stands for greater potency, the high end for weaker potency. The compound `COc1cc2oc(-c3ccc(O)cc3O)cc2cc1O` [EBENFURAN I] had a half-inhibitory concentration (IC50) of 46 nM.

As for `COc1cc(O)c2c(C=O)c(-c3ccc(O)cc3O)oc2c1` [EBENFURAN II], the IC50 amounted to 43 nM.
